We go through one compound from PMC5740082, “Identification of a CARM1 Inhibitor with Potent In Vitro and In Vivo Activity in Preclinical Models of Multiple Myeloma” (Scientific Reports, 2017).

For data set [1], the system named is MC/CAR. Description: Six-day cell proliferation assay (CellTiter-Glo). The format is cell-based. The settings on record: 144 h; MC/CAR (EBV+ B-lymphoblastoid), 6 days; read-out: Average day 6 gIC50. The protocol: (§1) Six-day cell proliferation assay
(§2) Optimal cell seeding density was determined empirically for each cell lines by examining the gro wth of a wide ran ge o f seedin g densities in a 3 84-well formatto identify conditio ns that permitted maximal and continued proliferation for 6 days. Cells were plat ed in duplicate plates 24 hours before treatment with a 20- point two-fold dilution series of compound or 0.15%
(§3) DMSO. Plates were incubated for 6 da ys at 37°C in 5% CO2. Cells were th en l ysed with CellTiter-Glo (CTG) (Pr omega) and chemiluminescent sign al was detected with an appropriat e microplate reader. In addition, an untreated plate of cells was harvested at the time of compound addition (T0) to quantif y the initial cell densit y. CTG values obtained after 6 days of treatment were expressed as a percent of the T0 value and plotted against compound concentration. […]
(§4) Supplementary Table S 3. […] A p anel […]
(§5) of cell lines was treated with EZM2302fo r 6da ys in a proliferation ass a y. Cell densit y (as assessed b y CellTiter-Gl o) at da y 0 was compared to day 6 to det ermine growth IC 50 values , calculated us i n g a f our parameter dose response equation.
(§6) Cell Type According to Cell Type Category Cell L ine Name gIC50 Average day 6 Standard Replicates
(§7) Supplier Modifier gIC50 (nM) Deviation […]
(§8) Burkitt lymphoma lymphoma NC-37 > 7331 0 2 […]
A general note: Cellular ATP, detected with luciferase, serves as a proxy for viable cell number.

Data set [2] relates to LP-1. Description: Six-day cell proliferation assay (CellTiter-Glo). Format: cell-based. The settings on record: Homo sapiens, 144 h; LP-1 (MM), 6 days; read-out: Average day 6 gIC50. The protocol:
as §1, §2, §3, §4, §5, §6, §7, §8

Data set [3] has as its system MOLP-8. Description: Six-day cell proliferation assay (CellTiter-Glo). The conditions noted are these: Homo sapiens, 144 h; MOLP-8 (MM), 6 days; read-out: Average day 6 gIC50. Format: cell-based. Here is the method: as §1, §2, §3, §4, §5, §6, §7, §8
Data set [4] has as its system HuNS1. Description: Six-day cell proliferation assay (CellTiter-Glo). Format: cell-based. The conditions noted are these: 144 h; HuNS1 (Transformed B-lymphoblastoid), 6 days; read-out: Average day 6 gIC50. The protocol:
as §1, §2, §3, §4, §5, §6, §7, §8

Data set [5] has as its system KMS-11. Kind of data set: Six-day cell proliferation assay (CellTiter-Glo). Format: cell-based. The conditions noted are these: Homo sapiens, 144 h; KMS-11 (Myeloma), 6 days; read-out: Average day 6 gIC50. Here is the method: as §1, §2, §3, §4, §5, §6, §7, §8
Data set [6] has as its system GDM-1. Kind of data set: Six-day cell proliferation assay (CellTiter-Glo). The format is cell-based. The conditions noted are these: Homo sapiens, 144 h; GDM-1 (AML), 6 days; read-out: Average day 6 gIC50. Here is the method: as §1, §2, §3, §4, §5, §6, §7, §8
The test system of data set [7] is JM1. Description: Six-day cell proliferation assay (CellTiter-Glo). The format is cell-based. The settings on record: Homo sapiens, 144 h; JM1 (B-cell lymphoma), 6 days; read-out: Average day 6 gIC50. The protocol:
as §1, §2, §3, §4, §5, §6, §7, §8

Data set [8] has as its system HT. Kind of data set: Six-day cell proliferation assay (CellTiter-Glo). Format: cell-based. The conditions noted are these: Homo sapiens, 144 h; HT (GCB DLBCL), 6 days; read-out: Average day 6 gIC50. Here is the method: as §1, §2, §3, §4, §5, §6, §7, §8
The subject of data set [9] is DB. Kind of data set: Six-day cell proliferation assay (CellTiter-Glo). The format is cell-based. The settings on record: Homo sapiens, 144 h; DB (GCB DLBCL), 6 days; read-out: Average day 6 gIC50. Here is the method:
as §1, §2, §3, §4, §5, §6, §7, §8

The subject of data set [10] is MM.1R. Description: Six-day cell proliferation assay (CellTiter-Glo). Format: cell-based. The settings on record: 144 h; MM.1R (MM), 6 days; read-out: Average day 6 gIC50. The protocol:
as §1, §2, §3, §4, §5, §6, §7, §8

The test system of data set [11] is L363. Description: Six-day cell proliferation assay (CellTiter-Glo). The format is cell-based. The settings on record: Homo sapiens, L-363, 144 h; L363 (Plasma cell leukemia), 6 days; read-out: Average day 6 gIC50. Here is the method:
as §1, §2, §3, §4, §5, §6, §7, §8

The subject of data set [12] is EJM. Description: Six-day cell proliferation assay (CellTiter-Glo). Format: cell-based. The conditions noted are these: Homo sapiens, 144 h; EJM (MM), 6 days; read-out: Average day 6 gIC50. The protocol:
as §1, §2, §3, §4, §5, §6, §7, §8

The test system of data set [13] is MOLP-2. Description: Six-day cell proliferation assay (CellTiter-Glo). The format is cell-based. The conditions noted are these: 144 h; MOLP-2 (MM), 6 days; read-out: Average day 6 gIC50. Here is the method: as §1, §2, §3, §4, §5, §6, §7, §8
In data set [14] the test system is JJN3. Kind of data set: Six-day cell proliferation assay (CellTiter-Glo). Format: cell-based. The conditions noted are these: Homo sapiens, JJN-3, 144 h; JJN3 (Plasma cell leukemia), 6 days; read-out: Average day 6 gIC50. Here is the method:
as §1, §2, §3, §4, §5, §6, §7, §8

The subject of data set [15] is ARH-77. Description: Six-day cell proliferation assay (CellTiter-Glo). The conditions noted are these: Homo sapiens, 144 h; ARH-77 (EBV+ lymphoblastoid), 6 days; read-out: Average day 6 gIC50. Format: cell-based. Here is the method: as §1, §2, §3, §4, §5, §6, §7, §8
For data set [16], the system named is AMO-1. Description: Six-day cell proliferation assay (CellTiter-Glo). The format is cell-based. The conditions noted are these: Homo sapiens, AMO1, 144 h; AMO-1 (Plasmacytoma), 6 days; read-out: Average day 6 gIC50. Here is the method: as §1, §2, §3, §4, §5, §6, §7, §8
In data set [17] the test system is MV-4-11. Kind of data set: Six-day cell proliferation assay (CellTiter-Glo). The format is cell-based. The conditions noted are these: Homo sapiens, MV4-11, 144 h; MV-4-11 (AML), 6 days; read-out: Average day 6 gIC50. Here is the method: as §1, §2, §3, §4, §5, §6, §7, §8
Data set [18] concerns KMS-12PE. Description: Six-day cell proliferation assay (CellTiter-Glo). Format: cell-based. The conditions noted are these: Homo sapiens, 144 h; KMS-12PE (MM, Pleural effusion), 6 days; read-out: Average day 6 gIC50. The protocol: as §1, §2, §3, §4, §5, §6, §7, §8
The subject of data set [19] is DOHH-2. Kind of data set: Six-day cell proliferation assay (CellTiter-Glo). The format is cell-based. The settings on record: Homo sapiens, 144 h; DOHH-2 (tFL), 6 days; read-out: Average day 6 gIC50. Here is the method: as §1, §2, §3, §4, §5, §6, §7, §8
The test system of data set [20] is MOLM-16. Description: Six-day cell proliferation assay (CellTiter-Glo). Format: cell-based. The conditions noted are these: MOLM16, 144 h; MOLM-16 (AML), 6 days; read-out: Average day 6 gIC50. Here is the method:
as §1, §2, §3, §4, §5, §6, §7, §8

The target in data set [21] is T1, CYP2C19 (Homo sapiens, UniProt P33261).
T1 construct: with human liver microsomes; from tissue; host or cells: human liver microsomes
Description: Cytochrome P450 inhibition. The format is in vitro ADME. The conditions noted are these: human liver microsomes, tested up to 25 µM. Here is the method:
Hepatocyte stability, plasma protein binding and cytochrome P450 assays were performed using standard procedures. Details can be found in Supplementary Methods. […]
Cytochrome P450 Inhibition (IC50 Determination) […]
with human liver microsomes (0.1 to 1 mg/m L) and NADPH (1 mM) in the presence of specific probe substrates at 37°C. Probe substrates and incubation times were: phenacetin (30 µM, 5 min), tolbutamide (120 µM, 60 min), mephenytoi n (25 µM, 60 min) and dextromethorphan (5 µM, 5 min) for CYP1A2, CYP2C9, CYP2C19 and CYP2D6, respectivel y. For CYP3A4, midazolam (2.5 µM, 5 min) andtestosterone (50 µM, 5 min) were used as probe substrates. […]
isoform. All reactions were terminated b y addition of methanol prior to cent rifugation and addition of internal standard to the supernatants. For CYP2C9, CYP2C19, CYP2D6 and CYP3A4 (midazolam) incubations, the supernat ants were combined for the simultaneous anal ysis o f 4-h ydrox ytol butamide, 4- hydrox ymephenytoin, dextrorphan and 1-hydrox ymidazolam b y LC-MS/MS. For the CYP1A2 and CYP3A4 (testosterone) incubations, the supernatants were anal yzed individuall y for acetaminophen and 6ß-h ydrox ytestosterone b y LC -MS/MS. A decrease i n the formation of the metabolites compared to vehicle control was used to calculate an IC50 value.
(Liver microsomes are a subcellular fraction often used to study metabolism.)

Some results are limits rather than exact numbers.

T1 sequence (P33261 whole entry): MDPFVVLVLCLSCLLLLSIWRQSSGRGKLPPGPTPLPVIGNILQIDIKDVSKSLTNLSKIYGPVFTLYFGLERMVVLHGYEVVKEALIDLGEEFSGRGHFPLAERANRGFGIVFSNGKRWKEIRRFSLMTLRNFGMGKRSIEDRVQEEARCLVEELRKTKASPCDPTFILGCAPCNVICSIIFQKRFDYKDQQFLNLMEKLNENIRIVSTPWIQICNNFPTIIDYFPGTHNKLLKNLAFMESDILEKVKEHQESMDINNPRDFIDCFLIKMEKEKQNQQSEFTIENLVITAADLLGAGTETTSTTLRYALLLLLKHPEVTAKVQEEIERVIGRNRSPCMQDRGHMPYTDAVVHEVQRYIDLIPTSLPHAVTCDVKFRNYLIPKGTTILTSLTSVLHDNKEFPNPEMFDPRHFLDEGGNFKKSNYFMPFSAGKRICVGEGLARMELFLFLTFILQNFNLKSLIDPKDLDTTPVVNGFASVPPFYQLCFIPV

As to `CNC[C@@H](O)COc1ccc(Cl)c(-c2nc(-c3c(C)noc3C)c(C)c(N3CC4(CCN(C(=O)OC)CC4)C3)n2)c1` [EZM2302], the IC50 was 0.241 µM in [1]; 2.65 µM in data set [2]; 6.62 µM in data set [3]; over 19 µM in [4]; over 18.2 µM in data set [5]; 20.7 µM in data set [6]. The IC50 in [7] is over 7.33 µM; in [8] it was over 7.33 µM; in data set [9], over 7.33 µM; in data set [10], 0.216 µM; in [11], 16.1 µM; in data set [12], over 20.2 µM. Also, the IC50 in data set [13] was over 30.7 µM; in data set [14] it was over 13 µM; in data set [15], over 4.27 µM; in [16], over 25.9 µM; in data set [17], over 7.86 µM; in data set [18], over 17.9 µM. The IC50 amounted to 0.468 µM in data set [19] and 6.54 µM in data set [20]. The CYP2C19 inhibition entry in [21] is recorded as “did not inhibit”.
